Measured values from PubChem BioAssay (NCI).
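GI50 = concentration required for 50% inhibition of growth. Definition used: TGI = concentration required for complete inhibition of growth.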

Assays:
Assay in all cases: NCI anticancer screen, dose series, 384-well format
[1] = tested on: HL-60(TB) leukemia
[2] = tested on: BT-549 breast
[3] = tested on: M14 melanoma
[4] = tested on: HCT-116 colon
[5] = tested on: MDA-MB-435 melanoma
[6] = tested on: U251 glioblastoma
[7] = tested on: CCRF-CEM leukemia
[8] = tested on: OVCAR-4 ovarian
[9] = tested on: NCI-H322M lung
[10] = tested on: SK-OV-3 ovarian
[11] = tested on: K-562 leukemia
[12] = tested on: NCI-H522 lung
[13] = tested on: TK-10 renal
[14] = tested on: SN12C renal
[15] = tested on: HOP-62 NSCLC
[16] = tested on: SF-295 CNS
[17] = tested on: HT29 colon
[18] = tested on: HS 578T breast
[19] = tested on: SNB-75 CNS
[20] = tested on: PC-3 prostate
[21] = tested on: MDA-MB-468 breast
[22] = tested on: COLO 205 colon
[23] = tested on: RPMI-8226 leukemia
[24] = tested on: IGROV1 ovarian
[25] = tested on: SK-MEL-2 melanoma
[26] = tested on: SK-MEL-28 melanoma
[27] = tested on: CAKI-1 renal
[28] = tested on: NCI/ADR-RES ovarian
[29] = tested on: NCI-H460 NSCLC
[30] = tested on: HCT-15 colon
[31] = tested on: MOLT-4 leukemia
[32] = tested on: SNB-19 CNS
[33] = tested on: SK-MEL-5 melanoma
[34] = tested on: MALME-3M melanoma
[35] = tested on: SF-539 CNS
[36] = tested on: ACHN renal
[37] = tested on: 786-0 renal
[38] = tested on: NCI-H23 lung
[39] = tested on: HOP-92 NSCLC
[40] = tested on: MCF7 breast
[41] = tested on: LOX IMVI melanoma
[42] = tested on: RXF 393 renal
[43] = tested on: A498 renal
[44] = tested on: EKVX NSCLC
[45] = tested on: SF-268 CNS
[46] = tested on: DU-145 prostate
[47] = tested on: KM12 colon
[48] = tested on: SW-620 colon
[49] = tested on: NCI-H226 lung
[50] = tested on: OVCAR-8 ovarian
[51] = tested on: A549 NSCLC
[52] = tested on: UACC-62 melanoma
[53] = tested on: OVCAR-3 ovarian
[54] = tested on: UACC-257 melanoma

SMILES: CCCOC(=O)c1nc(N(CC2CCCCC2)C(=O)NC)sc1/N=C/c1ccccc1
- GI50 [1]: 1.73 µM
- TGI [1]: 3.11 µM
- GI50 [2]: 4.02 µM
- TGI [2]: 12.4 µM
- GI50 [3]: 3.46 µM
- TGI [3]: 10.9 µM
- GI50 [4]: 3.2 µM
- TGI [4]: 9.48 µM
- GI50 [5]: 1.79 µM
- TGI [5]: 4.03 µM
- GI50 [6]: 7.26 µM
- TGI [6]: 21.2 µM
- GI50 [7]: 2.03 µM
- TGI [7]: 3.76 µM
- GI50 [8]: 2.74 µM
- TGI [8]: 12.5 µM
- GI50 [9]: 31.3 µM
- TGI [9]: > 100 µM
- GI50 [10]: 3.49 µM
- TGI [10]: 14.7 µM
- GI50 [11]: 3.37 µM
- TGI [11]: 10.7 µM
- GI50 [12]: 1.8 µM
- TGI [12]: 5.05 µM
- GI50 [13]: 8.53 µM
- TGI [13]: 21.8 µM
- GI50 [14]: 6.86 µM
- TGI [14]: 19.6 µM
- GI50 [15]: 2.45 µM
- TGI [15]: 7.26 µM
- GI50 [16]: 2.16 µM
- TGI [16]: 5.51 µM
- GI50 [17]: 2.58 µM
- TGI [17]: 6.98 µM
- GI50 [18]: 2.22 µM
- TGI [18]: 5.66 µM
- GI50 [19]: 2.55 µM
- TGI [19]: 7.92 µM
- GI50 [20]: 3.58 µM
- TGI [20]: 12.8 µM
- GI50 [21]: 2.13 µM
- TGI [21]: 4.05 µM
- GI50 [22]: 4.56 µM
- TGI [22]: 16.1 µM
- GI50 [23]: 1.61 µM
- TGI [23]: 3.22 µM
- GI50 [24]: 3.71 µM
- TGI [24]: 14.4 µM
- GI50 [25]: 2.34 µM
- TGI [25]: 4.27 µM
- GI50 [26]: 5.74 µM
- TGI [26]: 16.9 µM
- GI50 [27]: 5.18 µM
- TGI [27]: 18.1 µM
- GI50 [28]: 2.51 µM
- TGI [28]: 8.09 µM
- GI50 [29]: 2.56 µM
- TGI [29]: 6.26 µM
- GI50 [30]: 2.83 µM
- TGI [30]: 8.63 µM
- GI50 [31]: 1.76 µM
- TGI [31]: 3.2 µM
- GI50 [32]: 5.73 µM
- TGI [32]: 17.4 µM
- GI50 [33]: 2.43 µM
- TGI [33]: 11.3 µM
- GI50 [34]: 3.51 µM
- TGI [34]: 9.53 µM
- GI50 [35]: 4.85 µM
- TGI [35]: 16.6 µM
- GI50 [36]: 9.87 µM
- TGI [36]: 21.9 µM
- GI50 [37]: 6.22 µM
- TGI [37]: 18.7 µM
- GI50 [38]: 3.39 µM
- TGI [38]: 11.4 µM
- GI50 [39]: 4.36 µM
- TGI [39]: 14.6 µM
- GI50 [40]: 2.66 µM
- TGI [40]: 7.98 µM
- GI50 [41]: 3.83 µM
- TGI [41]: 11.3 µM
- GI50 [42]: 2.65 µM
- TGI [42]: 5.99 µM
- GI50 [43]: 4.1 µM
- TGI [43]: 14.7 µM
- GI50 [44]: 8.12 µM
- TGI [44]: 20.7 µM
- GI50 [45]: 5.35 µM
- TGI [45]: 15.5 µM
- GI50 [46]: 12.3 µM
- TGI [46]: 27.5 µM
- GI50 [47]: 3.26 µM
- TGI [47]: 11.8 µM
- GI50 [48]: 3.5 µM
- TGI [48]: 13.5 µM
- GI50 [49]: 5.1 µM
- TGI [49]: 18.1 µM
- GI50 [50]: 10.7 µM
- TGI [50]: 23.1 µM
- GI50 [51]: 9.71 µM
- TGI [51]: 22 µM
- GI50 [52]: 3.48 µM
- TGI [52]: 14 µM
- GI50 [53]: 2.01 µM
- TGI [53]: 4.27 µM
- GI50 [54]: 7.33 µM
- TGI [54]: 29.1 µM
